The target of one data set is T1, HDAC6 (Homo sapiens, UniProt Q9UBN7).
T1 sequence (Q9UBN7 1-1215): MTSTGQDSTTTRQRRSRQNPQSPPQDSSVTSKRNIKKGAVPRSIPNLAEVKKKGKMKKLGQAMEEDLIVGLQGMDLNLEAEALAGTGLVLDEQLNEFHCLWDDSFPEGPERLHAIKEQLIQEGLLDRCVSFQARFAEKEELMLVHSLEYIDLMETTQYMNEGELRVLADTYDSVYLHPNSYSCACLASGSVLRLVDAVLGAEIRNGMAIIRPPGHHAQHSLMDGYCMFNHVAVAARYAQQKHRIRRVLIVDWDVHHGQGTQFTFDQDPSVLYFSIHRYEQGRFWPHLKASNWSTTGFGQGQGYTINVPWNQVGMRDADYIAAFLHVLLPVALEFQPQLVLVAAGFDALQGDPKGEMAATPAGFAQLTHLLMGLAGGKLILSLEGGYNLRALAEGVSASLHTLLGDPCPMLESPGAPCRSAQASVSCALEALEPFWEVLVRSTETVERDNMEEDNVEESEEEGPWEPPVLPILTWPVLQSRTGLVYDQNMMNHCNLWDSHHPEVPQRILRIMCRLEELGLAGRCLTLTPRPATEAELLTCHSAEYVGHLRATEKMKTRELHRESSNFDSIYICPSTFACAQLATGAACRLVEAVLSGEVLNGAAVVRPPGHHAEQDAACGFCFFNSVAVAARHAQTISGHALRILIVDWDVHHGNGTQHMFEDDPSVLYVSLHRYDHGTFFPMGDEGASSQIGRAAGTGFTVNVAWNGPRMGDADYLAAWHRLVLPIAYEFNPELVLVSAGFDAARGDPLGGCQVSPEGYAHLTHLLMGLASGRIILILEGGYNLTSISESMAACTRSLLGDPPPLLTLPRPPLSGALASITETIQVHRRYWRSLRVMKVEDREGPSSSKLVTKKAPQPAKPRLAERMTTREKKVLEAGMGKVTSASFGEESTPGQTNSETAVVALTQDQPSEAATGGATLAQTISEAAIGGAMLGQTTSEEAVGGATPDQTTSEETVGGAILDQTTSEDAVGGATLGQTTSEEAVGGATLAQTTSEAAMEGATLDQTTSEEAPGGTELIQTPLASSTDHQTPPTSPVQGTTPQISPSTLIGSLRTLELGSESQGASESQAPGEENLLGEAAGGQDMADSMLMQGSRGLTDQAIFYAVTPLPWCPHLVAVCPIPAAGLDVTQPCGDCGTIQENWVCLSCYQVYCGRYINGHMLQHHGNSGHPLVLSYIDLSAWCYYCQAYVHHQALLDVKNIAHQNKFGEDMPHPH
The data set is described as follows: Time-dependent IC50 assay with preincubation (0-6 h). It counts as biochemical. As to conditions: 6 h time-dependent assay. As to the method:
The binding kinetics profile of KT-531 was also investigated by determining the association (kon)/dissociation (koff) rates as well as residence time parameters. The in vitro residence time (1/kobs) for the KT-531–HDAC6 complex was determined to be 23.18 min, as compared to 10.72 min for 1.

The target of a further data set is T2, HDAC8 (Homo sapiens, UniProt Q9BY41).
T2 construct: The full-length human HDACs were recombinantly expressed and purified from SF9 insect cells; host or cells: SF9 insect cells
T2 sequence (Q9BY41 1-377): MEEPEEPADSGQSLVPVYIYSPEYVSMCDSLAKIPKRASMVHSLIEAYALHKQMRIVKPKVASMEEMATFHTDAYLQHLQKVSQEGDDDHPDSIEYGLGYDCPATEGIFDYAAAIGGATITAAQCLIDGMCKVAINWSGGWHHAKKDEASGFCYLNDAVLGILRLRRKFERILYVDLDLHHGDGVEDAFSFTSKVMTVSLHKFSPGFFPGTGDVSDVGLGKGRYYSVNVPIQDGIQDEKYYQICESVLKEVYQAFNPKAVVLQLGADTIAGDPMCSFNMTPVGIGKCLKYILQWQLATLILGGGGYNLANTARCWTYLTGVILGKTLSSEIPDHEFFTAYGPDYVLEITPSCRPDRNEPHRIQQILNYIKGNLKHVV
Kind of data set: HDAC EMSA activity assay (Nanosyn). It is filed as biochemical. As to conditions: EMSA (Nanosyn); read-out: IC50 HDAC8.

Data set [1] can be described thus: In vivo PK study in CD-1 male mice. As to conditions: mouse, plasma, CD-1 mice, IP, 20 mg/kg.
For a further data set, the target named is T3, HDAC4 (Homo sapiens, UniProt P56524).
T3 construct: The full-length human HDACs were recombinantly expressed and purified from SF9 insect cells; host or cells: SF9 insect cells
T3 sequence (P56524 whole entry): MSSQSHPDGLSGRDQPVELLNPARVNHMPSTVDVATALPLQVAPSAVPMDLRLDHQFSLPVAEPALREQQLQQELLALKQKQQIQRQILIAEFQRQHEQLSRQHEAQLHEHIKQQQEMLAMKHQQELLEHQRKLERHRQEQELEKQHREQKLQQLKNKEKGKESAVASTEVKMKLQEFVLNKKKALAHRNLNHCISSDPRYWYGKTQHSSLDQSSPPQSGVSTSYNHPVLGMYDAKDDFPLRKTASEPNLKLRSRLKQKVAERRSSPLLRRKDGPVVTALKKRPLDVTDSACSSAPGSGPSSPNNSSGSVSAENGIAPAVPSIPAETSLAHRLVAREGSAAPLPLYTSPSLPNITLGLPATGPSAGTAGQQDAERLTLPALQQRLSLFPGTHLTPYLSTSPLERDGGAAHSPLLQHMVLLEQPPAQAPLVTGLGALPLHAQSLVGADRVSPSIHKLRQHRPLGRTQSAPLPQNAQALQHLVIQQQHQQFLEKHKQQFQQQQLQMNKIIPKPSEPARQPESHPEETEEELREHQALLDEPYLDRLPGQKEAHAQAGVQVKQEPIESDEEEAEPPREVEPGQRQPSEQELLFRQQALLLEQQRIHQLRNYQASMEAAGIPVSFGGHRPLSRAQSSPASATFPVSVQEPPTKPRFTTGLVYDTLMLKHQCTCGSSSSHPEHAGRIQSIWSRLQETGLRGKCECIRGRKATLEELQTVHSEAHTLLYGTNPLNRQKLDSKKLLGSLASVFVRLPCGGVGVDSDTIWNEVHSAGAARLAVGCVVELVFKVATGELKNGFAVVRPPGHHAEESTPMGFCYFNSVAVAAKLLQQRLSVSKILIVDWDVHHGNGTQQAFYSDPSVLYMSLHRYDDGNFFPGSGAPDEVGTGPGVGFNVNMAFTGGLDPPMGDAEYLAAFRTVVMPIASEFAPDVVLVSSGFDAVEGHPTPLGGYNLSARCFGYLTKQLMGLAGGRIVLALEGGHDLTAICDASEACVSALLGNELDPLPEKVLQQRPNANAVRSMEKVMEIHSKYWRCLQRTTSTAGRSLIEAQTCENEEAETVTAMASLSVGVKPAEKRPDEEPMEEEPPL
The data set is described as follows: HDAC EMSA activity assay (Nanosyn). It counts as biochemical. (In general: In EMSA bound probe runs differently from free probe, usually more slowly.)

The next data set deals with acetylation of α-tubulin. Kind of data set: Immunofluorescence assay in HeLa cells. It is filed as cell-based. As to conditions: 6 h, increasing doses. The protocol:
(§1) HeLa cells were plated to subconfluency on a 96-well plate (clear bottom black from Fisher Scientific). As above, inhibitors were introduced following 24 h. The cells were washed with 1× PBS, fixed with 4% formaldehyde (Millipore Sigma), permeabilized with 1% Triton X-100 (Millipore Sigma), and blocked in 5% bovine serum albumin (BSA) (BioShop) for 1 h at room temperature. Following this treatment, the cells were incubated in a cocktail composed of acetylated α-tubulin mouse monoclonal (1:100 dilution, MD Millipore) and acetylated histone H3 (1:50 dilution, Ac-Lys18, Sigma) antibodies. Secondary antibodies anti-mouse Alexa Fluor 647 and anti-rabbit Alexa Fluor 488 were used for immunofluorescent detection. Cells were counterstained for nucleic acids using 4′,6-diamidino-2-phenylindole (DAPI) (ThermoFisher Scientific). The cells were imaged with a Cytation S63 spectrophotometer and the fluorescence intensity was determined using ImageJ (n = 3). Two-way ANOVA with Tukey’s multiple comparisons test were performed using GraphPad Prism 6.0 (GraphPad Software Inc.). A p-value ≤ 0.05 was considered significant.

The test system of data set [2] is acetylation of histone H3. The data set is described as follows: Immunofluorescence assay in HeLa cells. As to conditions: 6 h, increasing doses. It is filed as cell-based. As to the method: as §1
Data set [3] deals with primary T-PLL patient samples. Kind of data set: Ex vivo drug sensitivity (DSS) in primary T-PLL patient samples. It counts as cell-based, human. As to conditions: p = 0.0007, Wilcoxon test. The source says:
Primary T-PLL cells were isolated from peripheral blood (PB) of 10 T-PLL patients. All patients were diagnosed according to WHO criteria based on clinical features, immunophenotyping (flow cytometry and histochemisty; including TCL1 expression), and FISH/karyotyping.[71],[72] Samples were obtained from patients under IRB-approved protocols following written informed consent according to the Declaration of Helsinki. Collection and use of patient material have been approved for research purpose by the ethics committee of the University Hospital of Cologne (EudraCT-Nr.: #2008-001421-34 and AZ11-319) and Helsinki (303/13/03/01/2011).
PB mononuclear cells (PBMCs) of T-PLL samples were obtained by density gradient centrifugation (Histopaque; Sigma-Aldrich). All drug screening in primary T-PLL patient samples were conducted as previously described.[34],[73]

For the molecule `O=C(NO)c1ccc(CN(C2CC2)S(=O)(=O)c2cc(F)c(F)c(F)c2F)cc1` [Compound 14, 4-(((N-Cyclopropyl-2,3,4,5-tetrafluorophenyl)sulfonamido)methyl)-N-hydroxybenzamide], on HDAC6, the “reversibility of binding (IC50 over preincubation time)” value is “unchanged IC50 values”. Besides, the IC50 on HDAC8 was 334 nM; against HDAC4, above 1000 nM. In data set [1], the Cmax at 24 h stood at 493 ng/mL. Besides, in data set [1], the MRT at 24 h was determined as 2.1 ± 0.5 h. Moreover, in data set [1] (read-out: In vivo AUClast (overall exposure)), the AUC(0-t) at 24 h was found to be 1580 ng·h/mL. Also, in data set [1] (read-out: In vivo t1/2), the half-life worked out at 1.05 h. Besides, the “acetylation of α-tubulin (immunofluorescence)” value with acetylation of α-tubulin is given as “significant acetylation of α-tubulin was observed”. Also, the “acetylation of histone H3 (immunofluorescence)” value in data set [2] is “no observable change in acetylation of histone H3”. For the same molecule, the “drug response (DSS) versus vorinostat (SAHA)” value in data set [3] is listed as “more potent drug response”.

What is called IC50 is the concentration that gives 50% inhibition. Broadly, the Cmax is the peak of the concentration-time curve. What is called MRT is the average time that molecules of a dose stay in the body.

(Values after publication PMC8237267 (Journal of Medicinal Chemistry, 2021).)
